Measured values taken from PubChem BioAssay AID1259407 (Chemical Carcinogenesis Research Information System (CCRIS), 2018).
Activity calls are given as the source filed them. The rule behind the calls is not given here.

Tested on: CCRIS mutagenicity, Ames/micronucleus/aberration tests
Test: CCRIS mutagenicity studies

In the case of `C=C(C)C`, the mutagenic call (Test System: AMES SALMONELLA TYPHIMURIUM, Strain/Indicator: TA97, Metabolic Activation: HAMSTER LIVER S-9, AROCLOR 1254 (10% OR 30%), Method: DESICCATOR) was “inactive; negative”, the mutagenic call (Test System: AMES SALMONELLA TYPHIMURIUM, Strain/Indicator: TA97, Metabolic Activation: NONE, Method: DESICCATOR) was “inactive; negative” and the mutagenic call (Test System: AMES SALMONELLA TYPHIMURIUM, Strain/Indicator: TA97, Metabolic Activation: RAT LIVER S-9, AROCLOR 1254 (10% OR 30%), Method: DESICCATOR) was “inactive; negative”. The mutagenic call (Test System: AMES SALMONELLA TYPHIMURIUM, Strain/Indicator: TA98, Metabolic Activation: HAMSTER LIVER S-9, AROCLOR 1254 (10% OR 30%), Method: DESICCATOR) was “inactive; negative”, the mutagenic call (Test System: AMES SALMONELLA TYPHIMURIUM, Strain/Indicator: TA98, Metabolic Activation: NONE) was “inactive; negative” and the mutagenic call (Test System: AMES SALMONELLA TYPHIMURIUM, Strain/Indicator: TA98, Metabolic Activation: NONE, Method: DESICCATOR) was “inactive; negative”. For the same compound, the mutagenic call (Test System: AMES SALMONELLA TYPHIMURIUM, Strain/Indicator: TA98, Metabolic Activation: NONE, Method: GAS EXPOSURE) was “inactive; negative”, the mutagenic call (Test System: AMES SALMONELLA TYPHIMURIUM, Strain/Indicator: TA98, Metabolic Activation: RAT LIVER S-9, AROCLOR 1254 (10% OR 30%), Method: DESICCATOR) was “inactive; negative” and the mutagenic call (Test System: AMES SALMONELLA TYPHIMURIUM, Strain/Indicator: TA98, Metabolic Activation: RAT LIVER S-9, PHENOBARBITAL AND BETA-NAPHTHOFLAVONE (40%), Method: GAS EXPOSURE) was “inactive; negative”. For the same compound, the mutagenic call (Test System: AMES SALMONELLA TYPHIMURIUM, Strain/Indicator: TA98, Metabolic Activation: RAT, LIVER, S-9, KC 500) was “inactive; negative”, the mutagenic call (Test System: AMES SALMONELLA TYPHIMURIUM, Strain/Indicator: TA100, Metabolic Activation: HAMSTER LIVER S-9, AROCLOR 1254 (10% OR 30%), Method: DESICCATOR) was “inactive; negative” and the mutagenic call (Test System: AMES SALMONELLA TYPHIMURIUM, Strain/Indicator: TA100, Metabolic Activation: NONE) was “inactive; negative”. For the same compound, the mutagenic call (Test System: AMES SALMONELLA TYPHIMURIUM, Strain/Indicator: TA100, Metabolic Activation: NONE, Method: DESICCATOR) was “inactive; negative”, the mutagenic call (Test System: AMES SALMONELLA TYPHIMURIUM, Strain/Indicator: TA100, Metabolic Activation: NONE, Method: FLASK ASSAY) was “inactive; negative” and the mutagenic call (Test System: AMES SALMONELLA TYPHIMURIUM, Strain/Indicator: TA100, Metabolic Activation: NONE, Method: GAS EXPOSURE) was “inactive; negative”. The mutagenic call (Test System: AMES SALMONELLA TYPHIMURIUM, Strain/Indicator: TA100, Metabolic Activation: RAT LIVER S-9, AROCLOR 1254 (10% OR 30%), Method: DESICCATOR) was “inactive; negative”, the mutagenic call (Test System: AMES SALMONELLA TYPHIMURIUM, Strain/Indicator: TA100, Metabolic Activation: RAT LIVER S-9, PHENOBARBITAL AND BETA-NAPHTHOFLAVONE (40%), Method: GAS EXPOSURE) was “inactive; negative” and the mutagenic call (Test System: AMES SALMONELLA TYPHIMURIUM, Strain/Indicator: TA100, Metabolic Activation: RAT, LIVER, S-9, KC 500) was “inactive; negative”. The mutagenic call (Test System: AMES SALMONELLA TYPHIMURIUM, Strain/Indicator: TA102, Metabolic Activation: NONE, Method: FLASK ASSAY) was “inactive; negative”, the mutagenic call (Test System: AMES SALMONELLA TYPHIMURIUM, Strain/Indicator: TA1535, Metabolic Activation: HAMSTER LIVER S-9, AROCLOR 1254 (10% OR 30%), Method: DESICCATOR) was “inactive; negative” and the mutagenic call (Test System: AMES SALMONELLA TYPHIMURIUM, Strain/Indicator: TA1535, Metabolic Activation: NONE) was “inactive; negative”. The mutagenic call (Test System: AMES SALMONELLA TYPHIMURIUM, Strain/Indicator: TA1535, Metabolic Activation: NONE, Method: DESICCATOR) was “inactive; negative”, the mutagenic call (Test System: AMES SALMONELLA TYPHIMURIUM, Strain/Indicator: TA1535, Metabolic Activation: NONE, Method: FLASK ASSAY) was “inactive; negative” and the mutagenic call (Test System: AMES SALMONELLA TYPHIMURIUM, Strain/Indicator: TA1535, Metabolic Activation: NONE, Method: GAS EXPOSURE) was “inactive; negative”. For the same compound, the mutagenic call (Test System: AMES SALMONELLA TYPHIMURIUM, Strain/Indicator: TA1535, Metabolic Activation: RAT LIVER S-9, AROCLOR 1254 (10% OR 30%), Method: DESICCATOR) was “inactive; negative”, the mutagenic call (Test System: AMES SALMONELLA TYPHIMURIUM, Strain/Indicator: TA1535, Metabolic Activation: RAT LIVER S-9, PHENOBARBITAL AND BETA-NAPHTHOFLAVONE (40%), Method: GAS EXPOSURE) was “inactive; negative” and the mutagenic call (Test System: AMES SALMONELLA TYPHIMURIUM, Strain/Indicator: TA1535, Metabolic Activation: RAT, LIVER, S-9, KC 500) was “inactive; negative”. The mutagenic call (Test System: AMES SALMONELLA TYPHIMURIUM, Strain/Indicator: TA1537, Metabolic Activation: NONE) was “inactive; negative”, the mutagenic call (Test System: AMES SALMONELLA TYPHIMURIUM, Strain/Indicator: TA1537, Metabolic Activation: NONE, Method: GAS EXPOSURE) was “inactive; negative” and the mutagenic call (Test System: AMES SALMONELLA TYPHIMURIUM, Strain/Indicator: TA1537, Metabolic Activation: RAT LIVER S-9, PHENOBARBITAL AND BETA-NAPHTHOFLAVONE (40%), Method: GAS EXPOSURE) was “inactive; negative”. For the same compound, the mutagenic call (Test System: AMES SALMONELLA TYPHIMURIUM, Strain/Indicator: TA1537, Metabolic Activation: RAT, LIVER, S-9, KC 500) was “inactive; negative”, the mutagenic call (Test System: AMES SALMONELLA TYPHIMURIUM, Strain/Indicator: TA1538, Metabolic Activation: NONE) was “inactive; negative” and the mutagenic call (Test System: AMES SALMONELLA TYPHIMURIUM, Strain/Indicator: TA1538, Metabolic Activation: RAT, LIVER, S-9, KC 500) was “inactive; negative”. The mutagenic call (Test System: E. COLI, Strain/Indicator: WP2 UVRA, Metabolic Activation: NONE) was “inactive; negative”, the mutagenic call (Test System: E. COLI, Strain/Indicator: WP2 UVRA, Metabolic Activation: RAT, LIVER, S-9, KC 500) was “inactive; negative” and the mutagenic call (Test System: E.COLI, Strain/Indicator: WP2UVRA, Metabolic Activation: NONE, Method: GAS EXPOSURE) was “inactive; negative”. For the same compound, the mutagenic call (Test System: E.COLI, Strain/Indicator: WP2UVRA, Metabolic Activation: RAT LIVER S-9, PHENOBARBITAL AND BETA-NAPHTHOFLAVONE (40%), Method: GAS EXPOSURE) was “inactive; negative”.

`c1cc2ccc3ccnc4ccc(c1)c2c34` was tested, and the mutagenic call (Test System: AMES SALMONELLA TYPHIMURIUM, Strain/Indicator: TA98, Metabolic Activation: NONE, Method: STANDARD PLATE) was “active; positive”, the mutagenic call (Test System: AMES SALMONELLA TYPHIMURIUM, Strain/Indicator: TA98, Metabolic Activation: RAT, LIVER, S-9, AROCLOR 1254, Method: STANDARD PLATE) was “active; positive” and the mutagenic call (Test System: AMES SALMONELLA TYPHIMURIUM, Strain/Indicator: TA100, Metabolic Activation: NONE, Method: STANDARD PLATE) was “inactive; negative”. For the same compound, the mutagenic call (Test System: AMES SALMONELLA TYPHIMURIUM, Strain/Indicator: TA100, Metabolic Activation: RAT, LIVER, S-9, AROCLOR 1254, Method: STANDARD PLATE) was “active; positive”.

With `Cc1c2ccccc2c(C)c2c3c(ccc12)[C@H](O)[C@@H](O)C=C3` the mutagenic call (Test System: CHINESE HAMSTER V-79, Strain/Indicator: V-79/6-THIOGUANINE, Metabolic Activation: CELL-MEDIATED, Method: STANDARD PLATE) was “active; positive” and the mutagenic call (Test System: CHINESE HAMSTER V-79, Strain/Indicator: V-79/OUABAIN, Metabolic Activation: CELL-MEDIATED, Method: STANDARD PLATE) was “active; positive”.
